The text below walks through data of patent US12318452B2, “Degraders of WEE1 kinase” (DANA-FARBER CANCER INSTITUTE, INC., priority 2018, dated 2025).

One test has as its target PLK1 (Homo sapiens, UniProt P53350). As to the kind of experiment: PLK1 level by immunoblot in MOLT4 cells. Format: cell-based. As for the experimental part: MOLT4 cells were plated at 1.5 million cells per well in a 6-well plate, with 3 mL of media per well. Cells were then immediately treated with the indicated concentration of the indicated compound and incubated for the indicated amount of time. Cells were collected by transferring each well to a 15 mL conical, centrifuging (1000 rpm for 3 min), then washing the cell pellet 2× with cold PBS. Each cell pellet was then lysed in 100 μL of RIPA lysis buffer (+protease/phosphatase inhibitors). Samples were normalized and prepped in 4×LDS+10% β-mercaptoethanol and boiled for 5 min at 95° C. Lysates were probed for specified proteins by western blotting using the Bolt® system (Life Technologies™)
Immunoblotting: Cells were washed with phosphate-buffered saline (PBS) and then lysed using radioimmunoprecipitation assay (RIPA) buffer supplemented with protease and phosphatase inhibitor cocktail (Roche) on ice for 15 minutes. The lysates were centrifuged at 14,000 rpm for 15 minutes at 4° C. and protein was quantified by bicinchoninic acid (BCA) assay (Pierce™). […]
FIG. 2A is an immunoblot showing that compound 13 degraded Wee1 after a 6-hour treatment in MOLT4 cells, and induced the downstream changes expected from Wee1 loss—including a decrease in phosphorylated cyclin-dependent kinase 1 (pCDK1) (Y15) and an increase in pH 3. […] Proteins of interest were then assessed by western blotting.
Background: A western blot detects proteins with antibodies after separation by electrophoresis.

Another test concerns the target Wee1 (Homo sapiens, UniProt P30291). The test is described as follows: Wee1 degradation immunoblot in OVCAR8 cells. It is filed as cell-based. Also on record: endogenous in cells. The note with it: 5 hours. On the procedure: Whole cell lysates for immunoblotting were prepared by pelleting cells from each cell line at 4° C. (300 g) for 5 minutes. The resulting cell pellets were washed 1× with ice-cold PBS and then resuspended in RIPA lysis buffer (Sigma, cat #R0278) supplemented with protease and phosphatase inhibitor tablets (Roche cat #4906845001). Lysates were clarified at 14,000 rpm for 15 minutes at 4° C. prior to quantification by BCA assay (Pierce™, cat #23225). Whole cell lysates were loaded into Bolt 4-12% Bis-Tris Gels (Thermo Fisher, cat #NW04120BOX) and separated by electrophoreses at 95 V for 1.5 hours. The gels were transferred to a nitrocellulose membrane using the iBlot® Gel Transfer at P3 for 7 minutes (Thermo Fisher, cat #IB23001) and then blocked for 1 hour at room temperature in Odyssey® blocking buffer (LICOR® Biosciences, cat #927-50010). Membranes were probed using antibodies against the relevant proteins at 4° C. overnight in 20% Odyssey® Blocking Buffer in 1×TBST. […]
Compound 13 was profiled in three different ovarian cancer cell lines OVCAR8, COV362, and Kuramochi (FIG. 6C-FIG. 6E). […] After confirming that Compound 13 degraded Wee1 in OVCAR8 cells, with maximal degradation observed at a 100 nM treatment (FIG. 11A), the efficacy of compound 13 and Olaparib combination treatments were evaluated.

Sequence of PLK1 (P53350 whole entry): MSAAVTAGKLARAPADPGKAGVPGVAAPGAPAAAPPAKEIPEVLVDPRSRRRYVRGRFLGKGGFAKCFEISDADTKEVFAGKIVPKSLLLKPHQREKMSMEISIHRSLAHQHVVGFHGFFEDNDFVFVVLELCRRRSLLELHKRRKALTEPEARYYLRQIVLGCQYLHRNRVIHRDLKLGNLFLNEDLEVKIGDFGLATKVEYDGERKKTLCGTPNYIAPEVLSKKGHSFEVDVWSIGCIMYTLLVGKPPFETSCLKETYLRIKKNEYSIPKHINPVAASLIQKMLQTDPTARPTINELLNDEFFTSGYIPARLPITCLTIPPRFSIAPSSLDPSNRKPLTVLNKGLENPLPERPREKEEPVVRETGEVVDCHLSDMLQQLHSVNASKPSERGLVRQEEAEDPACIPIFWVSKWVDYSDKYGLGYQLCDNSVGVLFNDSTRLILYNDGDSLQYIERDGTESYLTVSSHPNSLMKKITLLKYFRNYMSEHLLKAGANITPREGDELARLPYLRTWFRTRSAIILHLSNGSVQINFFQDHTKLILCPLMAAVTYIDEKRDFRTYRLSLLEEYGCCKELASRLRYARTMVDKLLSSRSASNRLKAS
Sequence of Wee1 (P30291 whole entry): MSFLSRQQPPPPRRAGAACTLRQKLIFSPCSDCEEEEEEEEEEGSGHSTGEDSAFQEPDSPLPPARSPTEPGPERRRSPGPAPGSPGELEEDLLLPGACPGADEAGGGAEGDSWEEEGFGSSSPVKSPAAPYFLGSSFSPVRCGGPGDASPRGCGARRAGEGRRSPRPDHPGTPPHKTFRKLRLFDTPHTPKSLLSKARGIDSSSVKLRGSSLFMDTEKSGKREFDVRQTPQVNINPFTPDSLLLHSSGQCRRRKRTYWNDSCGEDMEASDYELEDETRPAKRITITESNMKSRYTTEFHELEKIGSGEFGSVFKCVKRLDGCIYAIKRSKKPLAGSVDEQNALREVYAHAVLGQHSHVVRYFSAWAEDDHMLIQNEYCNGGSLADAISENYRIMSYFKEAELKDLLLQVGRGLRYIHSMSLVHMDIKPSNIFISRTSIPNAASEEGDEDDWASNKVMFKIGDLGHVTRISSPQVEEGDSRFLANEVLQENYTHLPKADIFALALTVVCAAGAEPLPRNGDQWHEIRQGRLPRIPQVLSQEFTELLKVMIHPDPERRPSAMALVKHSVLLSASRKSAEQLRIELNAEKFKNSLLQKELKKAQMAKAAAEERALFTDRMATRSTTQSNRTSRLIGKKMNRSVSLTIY

In the case of `C=CCn1c(=O)c2cnc(Nc3ccc(N4CCN(CCCNc5cccc6c5C(=O)N(C5CCC(=O)NC5=O)C6=O)CC4)cc3)nc2n1-c1cccc(C(C)(C)O)n1` (stereo not drawn) [Compound 13, 4-((3-(4-(4-((2-allyl-1-(6-(2-hydroxypropan-2-yl)pyridin-2-yl)-3-oxo-2,3-dihydro-1H-pyrazolo[3,4-d]pyrimidin-6-yl)amino)phenyl)piperazin-1-yl)propyl)amino)-2-(2,6-dioxopiperidin-3-yl)isoindoline-1,3-dione], the PLK1 degradation entry on PLK1 (6-hour treatment) is recorded as “not degraded”. Moreover, the PLK1 levels result at PLK1 (treated for up to 48 hrs) was “not reduced”. On Wee1, the “Concentration giving maximal Wee1 degradation” value is 100 nM.
